Laboratory results published in patent US4487932A, “2,6-Dimethyl-3,5-bis-(1-adamantylhydr oxycarbonyl)-4-(2-difluoromethoxyphenyl)-1,4-dihydropyridine” (Institut Organicheskogo Sinteza Akademii Nauk Latviiskoi, priority 1983, dated 1984).
Entries after “also recorded” stand apart in the source; their conditions may differ. Like-named read-outs stand apart in the source and are kept apart here.

How the values were obtained:
white mice = test: in vivo
Excerpt: (§1) The studies of acute toxicity established the present compound to be low-toxic.
(§2) Acute toxicity of investigated compounds for
(§3) white mice upon intraperitoneal administration

solubility = type: physicochemical; conditions: ethyl alcohol, chloroform, and other organic solvents and oils
arterial pressure = arterial pressure in rats of the line SHR, daily peroral administration during 10 days; type: in vivo
Experimental: The application of the present compound with daily peroral administration to rats of the line SHR in the dose of 20 mg/kg during 10 days causes lowering of the arterial pressure by 30-60 mm Hg during 24 hours. […] After the administration of the present compound was discontinued, the systolic arterial pressure gradually rose and reached the control group value in 3 days.

aconitic arrhythmia = test: aconitic model of arrhythmia in albino rats; type: in vivo; conditions: peroral and intravenous administration
[1] = system: venous blood outflowing from the coronary sinus of the heart; test: content of oxygen in venous blood outflowing from the coronary sinus; minute volume of the heart; type: in vivo, cats; conditions: 0.2 to 3 mg/kg
[2] = system: arrhythmia caused by barium chloride; test: barium chloride arrhythmia in rabbits; type: in vivo
[3] = system: myocardial ischemia (complete occlusion of the coronary artery); test: ischemic change in the heart in complete occlusion of the coronary artery; type: in vivo, dogs
[4] = system: systolic arterial pressure; conditions: for lowering of the systolic arterial pressure: 1 hour after peroral administration; for lowering of the systolic arterial pressure / lowering of the arterial pressure: present compound 10 mg/kg; for lowering of the arterial pressure: in 5 hours after peroral administration
in vivo = conditions: mouse, in vivo, ip
Excerpt: as §1, §2, §3

[5] = system: arrhythmia and cardiac arrest caused by calcium chloride; test: calcium chloride model of arrhythmia in white mice; type: in vivo
[6] = system: myocardial ischemia (partial occlusion of the coronary artery); test: rise of ST segment (epicardiac ECG) in partial occlusion of the coronary artery with superposition of a high artificial rhythm; type: in vivo, cats and dogs
stability in storage = type: physicochemical; conditions: conventional conditions
[7] = system: coronary circulation / cardiovascular system; conditions: for Duration: increase of coronary blood flow
Excerpt: The action of 2,6-dimethyl-3,5-bis-(1-adamantylhydroxycarbonyl)-4-(2-difluoromethoxyphenyl)-1,4-dihydropyridine on the cardiovascular system was investigated in experiments with cats, rats, and mice.

[8] = white mice, intraperitoneal, present compound = 1
[9] = preliminary peroral, 2 to 10 mg/kg, barium chloride 4 mg/kg intravenously
[10] = narcotized cats, dose 0.05 mg/kg
[11] = narcotized cats, dose 0.50 mg/kg
[12] = narcotized cats, dose 2.00 mg/kg

SMILES: COc1ccc(Cc2nccc3cc(OC)c(OC)cc23)cc1OC [Papaverine, reference compound]
- Relative toxicity (white mice; [8]): 92.3

SMILES: C=C[C@H]1C[N@@]2CC[C@H]1C[C@@H]2[C@@H](O)c1ccnc2ccc(OC)cc12 [Quinidine, reference compound]
- Relative toxicity (white mice; [8]): 53.8

SMILES: CC1=C(C(=O)OC23CC4CC(CC(C4)C2)C3)C(c2ccccc2OC(F)F)C(C(=O)OC23CC4CC(CC(C4)C2)C3)=C(C)N1 (stereo not shown) [Present compound, 2,6-dimethyl-3,5-bis-(1-adamantylhydroxycarbonyl)-4-(2-difluoromethoxyphenyl)-1,4-dihydropyridine]
- solubility (solubility): readily soluble in ethyl alcohol, chloroform, and other organic solvents and oils
- time for systolic arterial pressure to reach the control group value after discontinuation (arterial pressure; after daily peroral 20 mg/kg during 10 days): 3 days
- pulse frequency (arterial pressure; daily peroral 20 mg/kg during 10 days): No increase of the pulse frequency was observed
- lowering of the arterial pressure (arterial pressure; daily peroral 20 mg/kg during 10 days, during 24 hours): 30-60 mm Hg
- prophylactic and therapeutic activity on aconitic arrhythmia (aconitic arrhythmia): considerable prophylactic and therapeutic activity; also recorded: prophylactic and therapeutic effect
- minute volume of the heart [1]: somewhat increases
- content of oxygen in venous blood outflowing from the coronary sinus ([1]; cats): increases the content of oxygen in venous blood; also recorded: increases the content of oxygen in the venous blood
- prophylactic and therapeutic effect on barium arrhythmia [2]: prophylactic and therapeutic effect
- alleviation of arrhythmia [2, 9]: considerably alleviates arrhythmia
- shortening of arrhythmia [2, 9]: 2-5 times
- myocardial ischemia ([3]; complete occlusion and also partial occlusion with high artificial rhythm, cats and dogs): diminishes myocardial ischemia
- ischemic change in the heart ([3]; dogs, preliminary administration, 0.5 to 2 mg/kg, complete occlusion): considerably diminished the ischemic change in the heart
- lowering of the systolic arterial pressure [4]: 31.5 mm Hg
- lowering of the arterial pressure [4]: 8.6 mm Hg
- lowering of arterial pressure compared with niphedipine ([4]; peroral 10 mg/kg): less pronounced than the action of niphedipine
- Relative toxicity (white mice; mouse, in vivo, ip): 1
- LD50 (white mice; white mice, intraperitoneal): 8400(6885.2-10248) mg/kg
- toxicity relative to niphedipine (white mice; white mice, intraperitoneal): 1/44
- toxicity relative to quinidine (white mice; white mice, intraperitoneal): 1/53
- LD50 (in vivo): 8400 mg/kg
- antiarrhythmic activity compared with novocainamide (procainamide) and quinidine ([5]; calcium model of arrhythmia): in smaller doses, and in a more pronounced manner; also recorded: exceeds that of novocainamide (procainamide) and quinidine
- prevention of arrhythmia and cardiac arrest ([5]; peroral, 1 to 5 mg/kg, calcium chloride intravenous): prevents the appearance of arrhythmia and cardiac arrest
- effectiveness by ECG data (epicardium lead) compared with niphedipine and nitroglycerine ([6]; experiments with cats and dogs): more effective than niphedipine and nitroglycerine
- effect compared with nitroglycerine ([6]; intravenous 0.3 to 2 mg/kg vs nitroglycerine 0.05 mg/kg): almost two times more durative and more pronounced than of nitroglycerine
- rise of the ST segment on epicardiac leads of the ECG ([6]; preliminary intravenous, 0.3 to 2 mg/kg, partial occlusion + high artificial rhythm): considerably diminishes, and in some cases even completely precludes a rise of the ST segment
- stability in storage (stability in storage): stable when stored under conventional conditions
- effect on arterial pressure, systemic venous pressure and aortal blood flow ([7]; 0.005 to 3 mg/kg): does not cause sharp drop of the arterial pressure, noticeable increase of the systemic venous pressure, or diminution of the aortal blood flow
- undesirable effects (sharp drop of arterial pressure, diminishing of arterial/aortal blood flow, increase of systemic venous pressure) ([7]; 0.05 to 3 mg/kg): causing no undesirable effects; also recorded: without causing such undesirable effects as sharp drop of the arterial pressure or pronounced diminishing of the aortal blood flow
- duration of action compared with niphedipine ([7]; equiactive doses): twice as durative
- rising of the systemic venous pressure ([7]; large doses, intravenous administration): does not bring about rising of the systemic venous pressure
- coronarodilating action ([7]; narcotized cats): pronounced coronarodilating action
- coronarodilating activity compared with niphedipine ([7]; narcotized cats): somewhat inferior to niphedipine in activity
- Change of aortal blood flow [7, 10]: +5%
- Increase of space velocity of coronary blood flow [7, 10]: 10%
- Lowering of arterial pressure [7, 10]: 0%
- Duration [7, 10]: 25 min
- Change of aortal blood flow [7, 11]: +12%
- Change of systemic venous pressure [7, 11]: -10%
- Increase of space velocity of coronary blood flow [7, 11]: 60%
- Lowering of arterial pressure [7, 11]: 5%
- Duration [7, 11]: 50 min
- Change of aortal blood flow [7, 12]: +20%
- Change of systemic venous pressure [7, 12]: +8%
- Increase of space velocity of coronary blood flow [7, 12]: 120%
- Lowering of arterial pressure [7, 12]: 20%
- Duration [7, 12]: 90 min

SMILES: CCN(CC)CCNC(=O)c1ccc(N)cc1 [Novocainamide (procainamide), reference compound]
- Relative toxicity (white mice; mouse, in vivo, ip): 28.9

SMILES: COC(=O)C1=C(C)NC(C)=C(C(=O)OC)C1c1ccccc1[N+](=O)[O-] [Niphedipine, 2,6-dimethyl-4-o-nitrophenyl-3,5-dimethoxycarbonyl-1,4-dihydropyridine, reference compound]
- lowering of the systolic arterial pressure [4]: 51.7 mm Hg
- lowering of the arterial pressure [4]: 14 mm Hg
- prevention of the rise of the ST segment ([6]; intravenous, 0.01 to 0.05 mg/kg, partial occlusion + high artificial rhythm): only in an insignificant prevention of the rise of the ST segment
